# In patent publication US20250161338A1, “Compounds for Anti-aging Intervention” (AGENCY FOR SCIENCE, TECHNOLOGY AND RESEARCH, priority 2022, published 2025):
# “Also recorded” adds a separate entry of the source.
# Columns and labels:
# [1] = tested on: wild-type Saccharomyces cerevisiae CEN.PK113-7D yeast strain; experiment: Yeast cell growth (OD600) in SD medium; type: cell-based; conditions: 0 to 8 mM; 24, 48 and 72 hours
# Protocol: Yeast strain was recovered from frozen glycerol stock at 30° C. on YPD agar medium. Yeast was left to propagate in SD medium overnight at 30° C. with shaking at 220 revolutions per minute (rpm). Cells propagated overnight were diluted to a starting optical density at 600 nm (OD600) of approximately 0.2 in fresh SD medium to begin the chronological lifespan (CLS) experiments.
# CLS experiments were performed in 96-well plates with 200 μL yeast culture. Cellular inoculums were transferred into 96-well plates containing serially double-diluted concentrations (0 to 10 nM) of rapamycin. Cellular inoculum was transferred into 96-well plates containing serially double-diluted concentrations (0 to 8 mM) of 2,5-anhydro-D-mannitol, D-fructose, D-mannitol, D-maltose, and D-sorbitol in SD medium. Cells were incubated at 30° C., and the growth was measured at different time points. The growth time point 72 hours was considered as Day 1 for the CLS assay. Cell survival was quantified at various age time points by three different approaches: (i) PI fluorescence-based method, (ii) outgrowth in YPD liquid medium, and (iii) spotting assay (FIG. 1).
# Firstly, the effect of 2,5-AM on cell growth was determined. Yeast cells were incubated with varying concentrations of 2,5-AM in the SD medium. Cell growth was measured at different time points (24 hours, 48 hours, and 72 hours). […] Then, the survival of chronologically aged cells supplemented with different concentrations of 2,5-AM was measured using the PI fluorescence method. At each chronological age point, a 3 μL culture was transferred to a second 96-well plate containing 200 μL YPD medium. The 72-hour growth culture was considered Day 1 for the CLS analysis. The viability fraction was calculated, and a survival graph was plotted for different chronological age time points (FIG. 5). […] The survival of aged cells supplemented with 2,5-AM (4 mM and 8 mM) on Day 4 was approximately 80%. However, the survival of aged cells without 2,5-AM was approximately 50%. On Day 7, survival of 2,5-AM supplemented aged cells was approximately 75%. However, the survival of aged cells without 2,5-AM was reduced to less than 20%.
# Firstly, the effect of fructose, mannitol, maltose, and sorbitol on cell growth was tested. Yeast cells were incubated with various concentrations of fructose, mannitol, maltose, and sorbitol similar to 2,5-AM in the SD medium. […] Next, the survival of chronologically aged cells on day 1, day 7, day 14, and day 21 was measured. […] Aged cells supplemented with 2,5-AM (8 mM) survived (approximately 65%) on Day 21. However, the survival of aged cells without 2,5-AM supplementation was less than 10%.
# [2] = tested on: prototrophic yeast strain (CEN.PK113-7D); experiment: Propidium iodide fluorescence-based CLS method in yeast (incl. high-throughput screening); type: cell-based, Saccharomyces cerevisiae;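 as to PI intensity: untreated reference is eight DMSO and water control wells per plate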
# How it was run: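 CEN.PK113-7D aged in SD medium at 30 °C with compounds (rapamycin 0–10 nM; sugars 0–8 mM; screen at single concentrations). At each age point cells were stained with 5 μg/mL PI for 15 min; fluorescence was normalized to OD600, background-subtracted, and survival scaled against boiled-cell control.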
# [3] = tested on: IMR90 cells; experiment: CLS in human cells, propidium iodide fluorescence-based method (IMR90); type: cell-based; conditions: sixth day after seeding
# Protocol: Human embryonic kidney 293 (HEK293) cells (ATCC, Manassas, Virginia, United States of America), lung epithelial (A549) cells (ATCC, Manassas, Virginia, United States of America) and fibroblast (IMR90) cells (ATCC, Manassas, Virginia, United States of America) were cultured in the standard D10 medium, consisting of high-glucose DMEM (HyClone, Cytiva, Marlborough, Massachusetts, USA) supplemented with 10% Fetal Bovine Serum (FBS) (Gibco™, ThermoFisher Scientific, Waltham, Massachusetts, USA) and 1% Penicillin Streptomycin Solution (Gibco™, ThermoFisher Scientific, Waltham, Massachusetts, USA). All cells were cultured in a humidified incubator with 5% CO2 at 37° C.
# The stock solution of rapamycin, hemin, 5-fluorouracil, atorvastatin, and methotrexate was prepared in DMSO, followed by serial dilution to form various concentrations used in the experiment. The final DMSO concentration was kept at 0.05% in all experiments. The stock solution of 2,5-anhydro-D-mannitol was prepared in D10 medium. The chemical library used in screening were tested at 1 μM concentrations. Controls used were the same as the solvent applied, DMSO or water.
# The assay was performed by preparing the cells with PI (2 μg/mL or 5 μg/mL) in a D10 medium. […] At different age time points, reading was taken with a Synergy MX microplate reader (BioTek, Winooski, Vermont, United States) at 535 nm excitation and 617 nm emission.
smiles,measurement,setting,value
"OC[C@H]1O[C@H](CO)[C@@H](O)[C@@H]1O [2,5-AM, 2,5-anhydro-D-mannitol]",cell growth,[1],reached the same saturation level after 24 hours; also recorded: did not affect cell growth
same,survival of aged cells,"[2]; 4 mM and 8 mM, Day 4, without compound approx. 50%",approximately 80%
same,survival of aged cells,"[2]; Day 7, without compound less than 20%",approximately 75%
same,Yeast CLS increase,"[2]; concentration tested 300 μg/mL, Yes/No call of the screen",Yes
same,PI intensity,"[2]; concentration tested 300 μg/mL, solvent water, age point Day 7","36,240.0"
same,more live cells compared to the untreated control,[3]; 2.5 mM,32.33%
same,more live cells compared to the untreated control,[3]; 5 mM,48.08%
